Data: patent EP0047459A2, “Fluorescent reagent and immunofluorescent determination method” (INTERNATIONAL DIAGNOSTIC TECHNOLOGY, INC., priority 1980, dated 1982)
Read-outs that look alike come from different tables or passages of the source.

Assay: Comparison of water solubilities of haptens, modified haptens and gentamicin reaction products
Type: physicochemical
From the text: In der Tabelle III werden die Wasserlöslichkeiten der Haptene Phenobarbital und Diphenylhydantoin in unveränderter Form, in modifizierter Form (carboxyliert bzw. aminiert) und in der sogenannten konjugierten Form, nämlich als Umsetzungsprodukt mit Gentamicin gegenübergestellt. Hieraus ergibt sich, daß die Haptene in unveränderter und in modifizierter Form hydrophob sind (Die Unlöslichkeit in Wasser ist ein Maß für die Hydrophobie einer Verbindung). Mit steigender Unlöslichkeit der Verbindungen in Wasser steigt die Hydrophobie und die Wahrscheinlichkeit, daß sie an die Oberfläche gebunden werden, wobei durch die unspezifischen Bindungen große Ungenauigkeiten in der Immunofluoreszenz-Bestimmungsmethode verursacht werden. Wie aus der Tabelle III weiterhin ersichtlich, erhält man ein lösliches, d.h. hydrophiles Produkt, wenn man ein hydrophobes Hapten wie Phenobarbital oder Diphenylhydantoin mit einer hydrophilen Verbindung wie Gentamicin verbindet. Derartige Produkte werden nicht als solche an die feste Oberfläche gebunden.

Row | Compound | Wasserlöslichkeiten | Wasserlöslichkeiten (in water, insolubility is taken as a measure of hydrophobicity)
1 | O=C1NC(=O)C(c2ccccc2)(c2ccccc2)N1 [Diphenyl-hydantoin, Diphenylhydantoin] | unlöslich | –
2 | CCC1(c2ccccc2)C(=O)NC(=O)NC1=O [Phenobar-bital, Phenobarbital] | – | unlöslich
